From patent publication US8835458B2 (Hanmi Science Co., Ltd, priority 2010, dated 2014)
Structures can show the parent of a compound that is named as a salt. Where two headings read alike, the source gives them in different places.

What was measured:
[1] = system: MDA-MB-231 breast cancer cell lines; experiment: Evaluation of inhibition on cell growth (MTS); format: cell-based; settings: Homo sapiens, MDA-MB-231, 120 hours
Method in brief: (§1)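 GI50 values come from growth equations comparing treated, untreated and medium-only wells. Fibroblasts (Hs27, Balb/c3t3) got 72 h compound exposure with SRB read-out at 540 nm after TCA fixing. MDA-MB-231 got 120 h with MTS at 490 nm, across 10 μM˜0.1 nM.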

[2] = Toxicity to normal cells (SRB); format: cell-based, human; settings: human, Hs27 fibroblasts (normal cell line)
Method in brief: as §1

[3] = Toxicity to normal cells (SRB); format: cell-based, mouse; settings: mouse, Balb/c3t3 fibroblasts (normal cell line), read-out: BalB/C (GI50)
Experimental: MDA-MB-231 breast cancer cell lines (ATCC #HTB-26) and BxPC-3 pancreas cancer cell lines (ATCC #CRL 1687), which have been reported to express XIAP, were obtained from ATCC (American type culture collection; Rockville, Md.). MDA-MB-231 cell lines were incubated in L-15 medium supplemented with 10% FBS and 1% penicillin/streptomycin (Gibco BRL) at a T-75 cm^2 growth flask. In addition, BxPC-3 cell lines were incubated in RPMI medium supplemented with 10% FBS and 1% penicillin/streptomycin. For experiments of toxicity to normal cells, fibroblasts Hs27 (ATCC #CRL 1634) and Balb/c3t3 (ATCC #CCL 163) were used. The various cell lines were transferred into 96-well plates at a density of 3,000˜5,000 cells/100 μL, and cultured for 24 hours under conditions of 37° C., 5% CO2, 95% air, and 100% relative humidity (MDA-MB-231 cells were cultured under atmospheric conditions). The cells were treated with 10 μM˜0.1 nM of test compounds, and MDA-MB-231, BxPC-3, and normal cell lines were cultured for 120, 96, and 72 hours, respectively.
Cell viabilities of MDA-MB-231 cell lines were measured at an absorbance of 490 nm using CellTiter 96™ AQueous One Solution Cell proliferation Assay (MTS, Promega), and cell viabilities of BxPC-3 and normal cell lines were measured by fixing cells with 10% TCA (trichloroacetic acid), staining with SRB (sulforhodamine B), and measuring at 540 nm. From the values, GI50 values in which test compounds reduce the growth of cancer cells by 50% were calculated. The growth rates of cancer cells were calculated from following Equation 1 or 2. [(Ti−Tz)/(C−Tz)]×100 (for Ti>=Tz) [Equation 1] [(Ti−Tz)/Tz]×100 (for Ti<Tz) [Equation 2] In Equations 1 and 2, Tz refers to a density of untreated cells, which is an absorbance in 0% cell growth groups. C refers to a density of cells cultured by adding only medium, and Ti refers to a density of cells treated with test compounds.
GI50 value is the concentration of a test compound when the value of Equation 1 is 50, which indicates the concentration of test compound required to inhibit the cancer cells by 50%. On each measurement, test compounds were compared with a control.
The activity value of each compound (GI50 value) was shown in Table 5, and an IAP antagonist was used as a control.
In the activity measurement on MDA-MB-231 breast cancer cell lines, the values were represented as “***” for 100 nM or less, “**” for over 100 nM to below 1,000 nM, and “*” for 1,000 nM or more. In the measurement on normal cell lines, Balb/C and Hs27, the values were represented as “+++” for 10,000 nM or more, “++” for over 5,000 nM to below 10,000 nM, and “+” for 5,000 nM or less.

Row | SMILES | GI50 [1] | GI50 at 72 h [2] | GI50 at 72 h [3]
1 | CN[C@@H](C)C(=O)N[C@H](C(=O)N1CCC[C@H]1C(=O)Nc1ccc2ncnc(Nc3ccc(F)c(Cl)c3F)c2c1)C(C)(C)C [Example 48, (S)—N-(4-(3-chloro-2,4-difluorophenylamino)quinazolin-6-yl)-1-((S)-3,3-dimethyl-2-((S)-2-(methylamino)propanamido)butanoyl)pyrrolidine-2-carboxamide] | ≤ 0.1 µM | > 10 µM | > 10 µM
2 | CN[C@@H](C)C(=O)N[C@H](C(=O)N1CCC[C@H]1C(=O)Nc1cc2c(Nc3ccc(F)c(Cl)c3F)ncnc2cc1O[C@H]1CCOC1)C(C)(C)C [Example 14, (S)—N-(4-(3-chloro-2,4-difluorophenylamino)-7-((S)-tetrahydrofuran-3-yloxy)quinazolin-6-yl)-1-((S)-3,3-dimethyl-2-((S)-2-(methylamino)propanamido)butanoyl)pyrrolidine-2-carboxamide hydrochloride] | ≤ 0.1 µM | > 10 µM | > 10 µM
3 | CN[C@@H](C)C(=O)N[C@H](C(=O)N1CCC[C@H]1C(=O)Nc1cc2c(Nc3c(Cl)ccc4c3OCO4)ncnc2cc1OCCOC)C(C)(C)C [Example 3, ((S)—N-(4-(5-chlorobenzo[d][1,3]dioxol-4-ylamino)-7-(2-methoxyethoxy)quinazolin-6-yl)-1-((S)-3,3-dimethyl-2-((S)-2-(methylamino)propanamido)butanoyl)pyrrolidine-2-carboxamide hydrochloride] | 0.1 to 1 µM | > 10 µM | > 10 µM
4 | CN[C@@H](C)C(=O)N[C@H](C(=O)N1CCC[C@H]1C(=O)Nc1cc2c(Nc3ccc(-c4ccccc4)cc3)ncnc2cc1OC)C(C)(C)C [Example 39, (S)—N-(4-(biphenyl-4-ylamino)-7-methoxyquinazolin-6-yl)-1-((S)-3,3-dimethyl-2-((S)-2-(methylamino)propanamido)butanoyl)pyrrolidine-2-carboxamide hydrochloride] | ≤ 0.1 µM | > 10 µM | > 10 µM
5 | CN[C@@H](C)C(=O)N[C@H](C(=O)N1CCC[C@H]1C(=O)Nc1cc2c(Nc3ccccc3N3CCOCC3)ncnc2cc1OC)C(C)(C)C [Example 47, (S)-1-((S)-3,3-dimethyl-2-((S)-2-(methylamino)propanamido)butanoyl)-N-(7-methoxy-4-(2-morpholinophenylamino)quinazolin-6-yl)pyrrolidine-2-carboxamide] | ≤ 0.1 µM | > 10 µM | > 10 µM
6 | CN[C@@H](C)C(=O)N[C@H](C(=O)N1CCC[C@H]1C(=O)Nc1cc2c(N3CCCc4ccccc43)ncnc2cc1OC)C(C)(C)C [Example 50, (S)—N-(4-(3,4-dihydroquinoline-1(2H)-yl)-7-methoxyquinazolin-6-yl)-1-((S)-3,3-dimethyl-2-((S)-2-(methylamino)propanamido)butanoyl)pyrrolidine-2-carboxamide hydrochloride] | ≤ 0.1 µM | > 10 µM | > 10 µM
7 | CN[C@@H](C)C(=O)N[C@H](C(=O)N1CCC[C@H]1C(=O)Nc1ccc2ncnc(Nc3cccc(Cl)c3F)c2c1)C(C)(C)C [Example 4, (S)—N-(4-(3-chloro-2-fluorophenylamino)quinazolin-6-yl)-1-((S)-3,3-dimethyl-2-((S)-2-(methylamino)propanamido)butanoyl)pyrrolidine-2-carboxamide hydrochloride] | 0.1 to 1 µM | > 10 µM | > 10 µM

Second part, led by results:

Row | GI50 [1] | SMILES | GI50 at 72 h [2] | GI50 at 72 h [3]
8 | ≤ 0.1 µM | CN[C@@H](C)C(=O)N[C@H](C(=O)N1CCC[C@H]1C(=O)Nc1cc2c(Nc3ccc(F)c(Cl)c3F)ncnc2cc1O)C(C)(C)C [Example 43, (S)—N-(4-(3-chloro-2,4-difluorophenylamino)-7-hydroxyquinazolin-6-yl)-1-((S)-3,3-dimethyl-2-((S)-2-(methylamino)propanamido)butanoyl)pyrrolidine-2-carboxamide] | > 10 µM | > 10 µM
9 | ≤ 0.1 µM | CN[C@@H](C)C(=O)N[C@H](C(=O)N1CCC[C@H]1C(=O)Nc1cc2c(Nc3ccc(F)cc3F)ncnc2cc1OC)C(C)(C)C [Example 28, (S)—N-(4-(2,4-difluorophenylamino)-7-methoxyquinazolin-6-yl)-1-((S)-3,3-dimethyl-2-((S)-2-(methylamino)propanamido)butanoyl)pyrrolidine-2-carboxamide hydrochloride] | > 10 µM | > 10 µM
10 | 0.1 to 1 µM | CN[C@@H](C)C(=O)N[C@H](C(=O)N1CCC[C@H]1C(=O)Nc1cc2c(Nc3cnc4ccccc4c3)ncnc2cc1OC)C(C)(C)C [Example 62, (S)-1-((S)-3,3-dimethyl-2-((S)-2-(methylamino)propanamido)butanoyl)-N-(7-methoxy-4-(quinoline-3-ylamino)quinazolin-6-yl)pyrrolidine-2-carboxamide dihydrochloride] | > 10 µM | > 10 µM
11 | ≥ 1 µM | C=CC(=O)N[C@@H](C)C(=O)N[C@H](C(=O)N1CCC[C@H]1C(=O)Nc1cc2c(Nc3ccc(F)c(Cl)c3F)ncnc2cc1OC)C(C)(C)C [Example 13, (S)-1-((S)-2-((S)-2-acrylamidopropanamido)-3,3-dimethylbutanoyl)-N-(4-(3-chloro-2,4-difluorophenylamino)-7-methoxyquinazolin-6-yl)pyrrolidine-2-carboxamide hydrochloride] | > 10 µM | > 10 µM
12 | ≤ 0.1 µM | CN[C@@H](C)C(=O)N[C@H](C(=O)N1CCC[C@H]1C(=O)Nc1cc2c(Nc3ccccc3OC)ncnc2cc1OC)C(C)(C)C [Example 30, (S)—N-(4-(2-methoxyphenylamino)-7-methoxyquinazolin-6-yl)-1-((S)-3,3-dimethyl-2-((S)-2-(methylamino)propanamido)butanoyl)pyrrolidine-2-carboxamide hydrochloride] | > 10 µM | > 10 µM
13 | 0.1 to 1 µM | CN[C@@H](C)C(=O)N[C@H](C(=O)N1CCC[C@H]1C(=O)Nc1cc2c(Nc3ccc(F)c(Cl)c3F)ncnc2cc1O[C@@H]1CCOC1)C(C)(C)C [Example 16, (S)—N-(4-(3-chloro-2,4-difluorophenylamino)-7-((R)-tetrahydrofuran-3-yloxy)quinazolin-6-yl)-1-((S)-3,3-dimethyl-2-((S)-2-(methylamino)propanamido)butanoyl)pyrrolidine-2-carboxamide hydrochloride] | > 10 µM | > 10 µM
14 | ≤ 0.1 µM | CN[C@@H](C)C(=O)N[C@H](C(=O)N1CCC[C@H]1C(=O)Nc1cc2c(Nc3ccc(F)c(Cl)c3)ncnc2cc1OC)C(C)(C)C [Example 41, (S)—N-(4-(3-chloro-4-fluorophenylamino)-7-methoxyquinazolin-6-yl)-1-((S)-3,3-dimethyl-2-((S)-2-(methylamino)propanamido)butanoyl)pyrrolidine-2-carboxamide hydrochloride] | > 10 µM | > 10 µM
15 | ≤ 0.1 µM | CN[C@@H](C)C(=O)N[C@H](C(=O)N1CCC[C@H]1C(=O)Nc1cc2c(Nc3ccc(N(C)C)cc3)ncnc2cc1OC)C(C)(C)C [Example 64, (S)-1-((S)-3,3-dimethyl-2-((S)-2-(methylamino)propanamido)butanoyl)-N-(7-methoxy-4-(4-dimethylamino)phenylamino)quinazolin-6-yl)pyrrolidine-2-carboxamide dihydrochloride] | > 10 µM | > 10 µM
16 | ≤ 0.1 µM | CN[C@@H](C)C(=O)N[C@H](C(=O)N1CCC[C@H]1C(=O)Nc1cc2c(Nc3c(Cl)ccc4c3OCO4)ncnc2cc1OC)C(C)(C)C [Example 51, (S)—N-(4-(5-chlorobenzo[d][1,3]dioxol-4-ylamino)-7-methoxyquinazolin-6-yl)-1-((S)-3,3-dimethyl-2-((S)-2-(methylamino)propanamido)butanoyl)pyrrolidine-2-carboxamide hydrochloride] | > 10 µM | > 10 µM
